Results: PubChem BioAssay AID2060902 (Molecular Pharmacology Branch, DTP, NCI, 2025)

Test system: 485368-065-R3-J5-PDC spheroids with HUVEC/MSC, viability
Assay: Anticancer human tumor 485368-065-R3-J5-PDC patient-derived pancreatic carcinoma cell line growth inhibition [RAS]
Settings: for IC50: curve of first compound; for viability, T/C: stronger effect = lower value; active = viability on the fitted dose curve at most 10% of control; inactive = the rest
Outline: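 Agents were tested in combination matrices in half-log decrements from a top concentration at or near clinical Cmax (10 microM if undetermined). Targets were multi-cell spheroids of tumour lines plus HUVEC and MSC stromal cells.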
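Note: spheroids exposed to agents for seven days before readout.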

CCc1c2c(nc3ccc(O)cc13)-c1cc3c(c(=O)n1C2)COC(=O)[C@]3(O)CC + C#Cc1c(F)ccc2cc(O)cc(-c3ncc4c(N5CC6CCC(C5)N6)nc(OCC56CCCN5CC(F)C6)nc4c3F)c12
1.66 nM: IC50 (second compound 3.16 µM)
< 0.949 nM: IC50 (second compound 10 µM)
2.01 nM: IC50 (second compound 0.0316 µM)
2.19 nM: IC50 (second compound 1 µM)
active: viability, T/C (second compound 0.0316 µM, first compound 0.03 µM) 7.01% | viability, T/C (second compound 0.0316 µM, first compound 0.0949 µM) 5.19% | viability, T/C (second compound 0.0316 µM, first compound 0.3 µM) 2.88% | viability, T/C (second compound 0.1 µM, first compound 0.03 µM) 7.37% | viability, T/C (second compound 0.1 µM, first compound 0.0949 µM) 4.36% | viability, T/C (second compound 0.1 µM, first compound 0.3 µM) 3.26% | viability, T/C (second compound 0.316 µM, first compound 0.03 µM) 5.82% | viability, T/C (second compound 0.316 µM, first compound 0.0949 µM) 5.07% | viability, T/C (second compound 0.316 µM, first compound 0.3 µM) 3.14% | viability, T/C (second compound 1 µM, first compound 0.03 µM) 6.95% | viability, T/C (second compound 1 µM, first compound 0.0949 µM) 4.29% | viability, T/C (second compound 1 µM, first compound 0.3 µM) 3.15% | viability, T/C (second compound 3.16 µM, first compound 0.03 µM) 7.69% | viability, T/C (second compound 3.16 µM, first compound 0.0949 µM) 4.04% | viability, T/C (second compound 3.16 µM, first compound 0.3 µM) 2.84% | viability, T/C (second compound 10 µM, first compound 0.03 µM) 5.94% | viability, T/C (second compound 10 µM, first compound 0.0949 µM) 3.93% | viability, T/C (second compound 10 µM, first compound 0.3 µM) 3.41%
2.04 nM: IC50 (second compound 0.1 µM) | IC50 (second compound 0.316 µM)
inactive: viability, T/C (second compound 0.0316 µM, first compound 0.000949 µM) 79.6% | viability, T/C (second compound 0.0316 µM, first compound 0.003 µM) 34% | viability, T/C (second compound 0.0316 µM, first compound 0.00949 µM) 14.3% | viability, T/C (second compound 0.1 µM, first compound 0.000949 µM) 82.5% | viability, T/C (second compound 0.1 µM, first compound 0.003 µM) 33.7% | viability, T/C (second compound 0.1 µM, first compound 0.00949 µM) 12.5% | viability, T/C (second compound 0.316 µM, first compound 0.000949 µM) 82.5% | viability, T/C (second compound 0.316 µM, first compound 0.003 µM) 33.4% | viability, T/C (second compound 0.316 µM, first compound 0.00949 µM) 13.3% | viability, T/C (second compound 1 µM, first compound 0.000949 µM) 91.2% | viability, T/C (second compound 1 µM, first compound 0.003 µM) 33.6% | viability, T/C (second compound 1 µM, first compound 0.00949 µM) 14.8% | viability, T/C (second compound 3.16 µM, first compound 0.000949 µM) 71.5% | viability, T/C (second compound 3.16 µM, first compound 0.003 µM) 26.7% | viability, T/C (second compound 3.16 µM, first compound 0.00949 µM) 12.9% | viability, T/C (second compound 10 µM, first compound 0.000949 µM) 28.2% | viability, T/C (second compound 10 µM, first compound 0.003 µM) 19.4% | viability, T/C (second compound 10 µM, first compound 0.00949 µM) 11.2%

Nc1ccn(C2OC(CO)C(O)C2(F)F)c(=O)n1 (centres undefined) + C#Cc1c(F)ccc2cc(O)cc(-c3ncc4c(N5CC6CCC(C5)N6)nc(OCC56CCCN5CC(F)C6)nc4c3F)c12
6.3 nM: IC50 (second compound 0.1 µM)
6.51 nM: IC50 (second compound 0.316 µM)
6.36 nM: IC50 (second compound 0.0316 µM)
inactive: viability, T/C (second compound 0.0316 µM, first compound 0.00316 µM) 98.4% | viability, T/C (second compound 0.0316 µM, first compound 0.01 µM) 18.8% | viability, T/C (second compound 0.0316 µM, first compound 0.0316 µM) 8.96% | viability, T/C (second compound 0.0316 µM, first compound 0.1 µM) 11.8% | viability, T/C (second compound 0.0316 µM, first compound 0.316 µM) 11.1% | viability, T/C (second compound 0.0316 µM, first compound 1 µM) 14.4% | viability, T/C (second compound 0.1 µM, first compound 0.00316 µM) 93.6% | viability, T/C (second compound 0.1 µM, first compound 0.01 µM) 20.7% | viability, T/C (second compound 0.1 µM, first compound 0.0316 µM) 10.9% | viability, T/C (second compound 0.1 µM, first compound 0.1 µM) 9.95% | viability, T/C (second compound 0.1 µM, first compound 0.316 µM) 11.6% | viability, T/C (second compound 0.1 µM, first compound 1 µM) 12.8% | viability, T/C (second compound 0.316 µM, first compound 0.00316 µM) 94.5% | viability, T/C (second compound 0.316 µM, first compound 0.01 µM) 23.5% | viability, T/C (second compound 0.316 µM, first compound 0.0316 µM) 10.9% | viability, T/C (second compound 0.316 µM, first compound 0.1 µM) 10.3% | viability, T/C (second compound 0.316 µM, first compound 0.316 µM) 11.8% | viability, T/C (second compound 0.316 µM, first compound 1 µM) 11.8% | viability, T/C (second compound 1 µM, first compound 0.00316 µM) 90.4% | viability, T/C (second compound 1 µM, first compound 0.01 µM) 19.5% | viability, T/C (second compound 1 µM, first compound 0.0316 µM) 12.1% | viability, T/C (second compound 1 µM, first compound 0.1 µM) 8.97% | viability, T/C (second compound 1 µM, first compound 0.316 µM) 10.8% | viability, T/C (second compound 1 µM, first compound 1 µM) 11% | viability, T/C (second compound 3.16 µM, first compound 0.00316 µM) 89% | viability, T/C (second compound 3.16 µM, first compound 0.01 µM) 18.3% | viability, T/C (second compound 10 µM, first compound 0.00316 µM) 37.7% | viability, T/C (second compound 10 µM, first compound 0.01 µM) 20.8% | viability, T/C (second compound 10 µM, first compound 0.0316 µM) 8.12%
active: viability, T/C (second compound 3.16 µM, first compound 0.0316 µM) 9.24% | viability, T/C (second compound 3.16 µM, first compound 0.1 µM) 9.65% | viability, T/C (second compound 3.16 µM, first compound 0.316 µM) 9.37% | viability, T/C (second compound 3.16 µM, first compound 1 µM) 9.7% | viability, T/C (second compound 10 µM, first compound 0.1 µM) 7.5% | viability, T/C (second compound 10 µM, first compound 0.316 µM) 8.95% | viability, T/C (second compound 10 µM, first compound 1 µM) 9.6%
5.96 nM: IC50 (second compound 3.16 µM)
< 3.16 nM: IC50 (second compound 10 µM)
6.09 nM: IC50 (second compound 1 µM)
